Read-outs that look alike come from different tables or passages of the source.
How the values were obtained:
Type in all cases: cell-based
[1] = tested on: D6 (CQ^S) P. falciparum strain; experiment: In vitro fluorescence (Sybr Green I) assay for IC50 against D6 strain; conditions: Plasmodium falciparum, read-out: IC50-D6
Text: (§1) This method employs fluorescent detection of the level of parasitemia in cultured red blood cells and can be automated for high-throughput screening of antimalarial RCQs. This exemplary method allows the inhibitory agent (such as a MCQ) to be in contact with the parasite for an entire developmental cycle without purine starvation, which is in contrast to the traditional ^3H-hypoxanthine method (Desjardins et al. 1979. Antimicrob. Agents Chemother. 16(6):710-718, which is incorporated herein by reference in its entirety). Briefly, to perform the Smilkstein et al. method, an initial parasitemia of approximately 0.2% is attained by adding uninfected red blood cells (RBCs) to a stock culture of Plasmodium-infected RBCs. […] After a period of incubation (such as about 72 hours), a sufficient amount (e.g., 100 μL) of a fluorescent DNA binding dye-detergent mixture (e.g., Sybr Green I dye-detergent mixture) to lyse cells and bind to DNA is added to the reactions. Because uninfected RBCs have no DNA, only parasite DNA (in infected RBCs) is available for binding to the fluorescent dye (e.g., Sybr Green I). Samples are then incubated in the dark for a period of time (e.g., one hour), followed by measurement of levels of fluorescence. For Sybr Green 1, excitation and emission wavelength are 485 and 530 nm, respectively. Fluorescence readings, which represent the amount of parasite DNA in the sample, can be plotted against the Log [drug] and fit to a curve by nonlinear regression to obtain the IC50 value for the tested compound.
(§2) An in vitro fluorescence assay for determining IC50 of antimalarial drugs was performed as previously described by Smilkstein et al. (2004. Antimicrob. Agents Chemother. 48(5):1803-1806). This procedure can be automated for high-throughput screening of the antimalarial activities of RCQs described herein. This method also allows the tested agent (e.g., a MCQ) to be in contact with the parasite for an entire developmental cycle without purine starvation (which occurs with the commonly used ^3H-hypoxanthine method; see, e.g., Desjardins et al. 1979. Antimicrob. Agents Chemother. 16, (6):710-7188).
(§3) Briefly, an initial parasitemia of approximately 0.2% was attained by addition of uninfected red blood cells to a stock culture of cells infected with Dd2 (CQ^R), 7G8 (CQ^R), or D6 (CQ^S) P. falciparum strains. A 10 mM solution of a test compound (in DMSO) was prepared. The test compound (at a final concentration from 10^−11 to 10^−4 M) and infected red blood cells (at a final concentration of 2% (v/v)) were mixed in 100 μL samples in individual wells of a 96-well plate. Each sample was prepared in triplicate. A triplicate set of reactions containing CQ (instead of the test compound) was included as a control. After a 72 hour incubation period, Sybr Green I dye-detergent mixture (100 μL) was added to each reaction. The samples were further incubated for an hour in the dark, and then placed in a 96-well fluorescence plate reader (Gemini-EM, […]) and analyzed with excitation and emission wavelength bands at 485 and 530 nm, respectively. Fluorescence readings were plotted against the Log [drug], and curve fitting performed by nonlinear regression to find the IC50 value.

[2] = tested on: Dd2 (CQ^R) P. falciparum strain; experiment: In vitro fluorescence (Sybr Green I) assay for IC50 against Dd2 strain; conditions: Plasmodium falciparum, read-out: IC50-Dd2
Text: as §1, §2, §3

[3] = tested on: 7G8 (CQ^R) P. falciparum strain; experiment: In vitro fluorescence (Sybr Green I) assay for IC50 against 7G8 strain; conditions: Plasmodium falciparum, read-out: IC50-7G8
Text: as §1, §2, §3

[4] = Erythrocyte, D6 (CQ^S) strain in infected red blood cells, 72 hour incubation
[5] = Erythrocyte, Dd2 (CQ^R) strain in infected red blood cells, 72 hour incubation
[6] = Erythrocyte, 7G8 (CQ^R) strain in infected red blood cells, 72 hour incubation

Row | SMILES | IC50 [1, 4] | IC50 [2, 5] | IC50 [3, 6] | IC50 ([1]; D6, Erythrocyte, 72 h) | IC50 ([2]; DD2, Erythrocyte, 72 h) | IC50 ([3]; 7G8, Erythrocyte, 72 h)
1 | Clc1ccc2c(NCCN3CCN(c4ccccn4)CC3)ccnc2c1 [7-chloro-N-(2-(4-(pyridin-2-yl)piperazin-1-yl)ethyl)quinolin-4-amine] | 4570 pM | 3900 pM | 12200 pM |  |  | 
2 | O=[N+]([O-])c1ccc(N2CCN(CCCNc3ccnc4cc(Cl)ccc34)CC2)c([N+](=O)[O-])c1 [7-chloro-N-(3-(4-(2,4-dinitrophenyl)piperazin-1-yl)propyl)quinolin-4-amine] |  |  |  | 300 pM | 470 pM | 350 pM
3 | Clc1ccc2c(NCCCN3CCN(c4ccc(Cl)c(Cl)c4)CC3)ccnc2c1 [7-chloro-N-(3-(4-(3,4-dichlorophenyl)piperazin-1-yl)propyl)quinolin-4-amine] |  |  |  | 100 pM | 900 pM | 280 pM
4 | O=[N+]([O-])c1cnc(N2CCN(CCCNc3ccnc4cc(Cl)ccc34)CC2)c([N+](=O)[O-])c1 [7-chloro-N-(3-(4-(3,5-dinitropyridin-2-yl)piperazin-1-yl)propyl)quinolin-4-amine] | 450 pM | 850 pM | 900 pM |  |  | 
5 | FC(F)(F)c1ccc(N2CCN(CCCNc3ccnc4cc(Cl)ccc34)CC2)cc1 [7-chloro-N-(3-(4-(4-(trifluoromethyl)phenyl)piperazin-1-yl)propyl)quinolin-4-amine] | 5 pM | 170 pM | 200 pM |  |  | 
6 | Clc1ccc(N2CCN(CCCNc3ccnc4cc(Cl)ccc34)CC2)cc1 [7-chloro-N-(3-(4-(4-chlorophenyl)piperazin-1-yl)propyl)quinolin-4-amine] |  |  |  | 5 pM | 330 pM | 90 pM
7 | Fc1ccc(N2CCN(CCCNc3ccnc4cc(Cl)ccc34)CC2)cc1 [7-chloro-N-(3-(4-(4-fluorophenyl)piperazin-1-yl)propyl)quinolin-4-amine] | 140 pM | 800 pM | 300 pM |  |  | 
8 | COc1ccc(N2CCN(CCCNc3ccnc4cc(Cl)ccc34)CC2)cc1 [7-chloro-N-(3-(4-(4-methoxyphenyl)piperazin-1-yl)propyl)quinolin-4-amine] | 100 pM | 480 pM | 300 pM |  |  | 
9 | O=[N+]([O-])c1ccc(N2CCN(CCCNc3ccnc4cc(Cl)ccc34)CC2)cc1 [7-chloro-N-(3-(4-(4-nitrophenyl)piperazin-1-yl)propyl)quinolin-4-amine] |  |  |  | 800 pM | 1140 pM | 400 pM
10 | FC(F)(F)c1ccc(N2CCN(CCCNc3ccnc4cc(Cl)ccc34)CC2)nc1 [7-chloro-N-(3-(4-(5-(trifluoromethyl)pyridin-2-yl)piperazin-1-yl)propyl)quinolin-4-amine] | 500 pM | 830 pM | 1000 pM |  |  | 
11 | O=[N+]([O-])c1ccc(N2CCN(CCCNc3ccnc4cc(Cl)ccc34)CC2)nc1 [7-chloro-N-(3-(4-(5-nitropyridin-2-yl)piperazin-1-yl)propyl)quinolin-4-amine] | 260 pM | 480 pM | 450 pM |  |  | 
12 | Clc1ccc2c(NCCCN3CCN(c4cccnc4)CC3)ccnc2c1 [7-chloro-N-(3-(4-(pyridin-3-yl)piperazin-1-yl)propyl)quinolin-4-amine] | 2070 pM | 1100 pM | 2900 pM |  |  | 

From patent US8658648B2, “Modified chloroquines with single ring moiety or fused ring moiety” (DesignMedix, Inc., priority 2008, dated 2014)
